The values below come from patent US12227480B1 (priority 2023, dated 2025).

Test [1] has as its system Mycobacterium tuberculosis XDR strain. In words: microbe, parasite or virus in culture. The class given is cell-based. Conditions: read-out: Anti-tubercular activity against Mycobacterium tuberculosis (MIC), XDR.
The subject of test [2] is Mycobacterium tuberculosis MDR strain. Description: microbe, parasite or virus in culture. The test is classed as cell-based. The note with it: read-out: Anti-tubercular activity against Mycobacterium tuberculosis (MIC), MDR.

For `Cc1cc[n+](CC(=O)c2ccc(F)cc2)cc1.[Br-]` [Compound 3d, 1-(2-(4-Fluorophenyl)-2-oxoethyl)-4-methylpyridin-1-ium bromide], the MIC turned out to be 32 µg/mL in test [1] and 8 µg/mL in test [2].
